Species: Rattus norvegicus
Experiment: Open TG-GATES - Regimen: Single
Assay type: toxicity, organism-based, Sprague-Dawley
Set-up: regimen Single, gender Male, age 6 weeks
Settings: in vivo, po, 6 mg/kg, route gavage, dose level Low; for APTT / Bas / Eos / Fbg / Hb / Ht / Lym / MCH / MCHC / MCV / Mono / Neu / PT / Plat / RBC / Ret / WBC: tissue Blood; for LIVER: tissue Liver; for A/G / ALP / ALT / AST / BUN / CRE / Ca / Cl / DBIL / GLC / IP / K / LDH / Na / PL / RALB / TBIL / TC / TG / TP / gamma-GTP: tissue Plasma

O=[N+]([O-])c1ccc(O)c([N+](=O)[O-])c1 [2,4-DINITROPHENOL]
TERMINAL_BW (3 h): 204.4 g | APTT (3 h): 17 s | Bas (3 h): 0% | Eos (3 h): 0.8% | Fbg (3 h): 232 mg/dL | Hb (3 h): 12.9 g/dL | Ht (3 h): 38.5% | Lym (3 h): 74.8% | MCH (3 h): 21.6 pg | MCHC (3 h): 33.5% | MCV (3 h): 64.6 fL | Mono (3 h): 9.6% | Neu (3 h): 14.8% | PT (3 h): 12.2 s | Plat (3 h): 124.6 x10_4/uL | RBC (3 h): 595.6 x10_4/ul | Ret (3 h): 9.1% | WBC (3 h): 105.2 x10_2/uL | LIVER (3 h): 9.7 g | A/G (3 h): 2.4 | ALP (3 h): 1437.4 IU/L | ALT (3 h): 38 IU/L | AST (3 h): 69 IU/L | BUN (3 h): 11 mg/dL | CRE (3 h): 0.4 mg/dL | Ca (3 h): 11.2 mg/dL | Cl (3 h): 103.2 meq/L | DBIL (3 h): 0.014 mg/dL | GLC (3 h): 185.2 mg/dL | IP (3 h): 10.4 mg/dL | K (3 h): 4.3 meq/L | LDH (3 h): 110.2 IU/L | Na (3 h): 138.4 meq/L | PL (3 h): 139.8 mg/dL | RALB (3 h): 3.8 g/dL | TBIL (3 h): 0.046 mg/dL | TC (3 h): 79 mg/dL | TG (3 h): 57 mg/dL | TP (3 h): 5.4 g/dL | gamma-GTP (3 h): 0 IU/L | TERMINAL_BW (6 h): 202.3 g | APTT (6 h): 16.3 s | Bas (6 h): 0% | Eos (6 h): 1% | Fbg (6 h): 252.2 mg/dL | Hb (6 h): 13 g/dL | Ht (6 h): 38.9% | Lym (6 h): 73% | MCH (6 h): 21.3 pg | MCHC (6 h): 33.4% | MCV (6 h): 63.9 fL | Mono (6 h): 10% | Neu (6 h): 16.4% | PT (6 h): 12.1 s | Plat (6 h): 124.2 x10_4/uL | RBC (6 h): 608.6 x10_4/ul | Ret (6 h): 9.3% | WBC (6 h): 116.8 x10_2/uL | LIVER (6 h): 9.2 g | A/G (6 h): 2.4 | ALP (6 h): 1588.6 IU/L | ALT (6 h): 35.4 IU/L | AST (6 h): 69.2 IU/L | BUN (6 h): 10.6 mg/dL | CRE (6 h): 0.4 mg/dL | Ca (6 h): 10.9 mg/dL | Cl (6 h): 105.2 meq/L | DBIL (6 h): 0.012 mg/dL | GLC (6 h): 198 mg/dL | IP (6 h): 9.3 mg/dL | K (6 h): 4.4 meq/L | LDH (6 h): 135.6 IU/L | Na (6 h): 139 meq/L | PL (6 h): 154 mg/dL | RALB (6 h): 3.9 g/dL | TBIL (6 h): 0.05 mg/dL | TC (6 h): 92.4 mg/dL | TG (6 h): 61.4 mg/dL | TP (6 h): 5.6 g/dL | gamma-GTP (6 h): 0 IU/L | TERMINAL_BW (9 h): 199.2 g | APTT (9 h): 15.6 s | Bas (9 h): 0% | Eos (9 h): 1% | Fbg (9 h): 244.6 mg/dL | Hb (9 h): 12.9 g/dL | Ht (9 h): 38.5% | Lym (9 h): 72% | MCH (9 h): 21.7 pg | MCHC (9 h): 33.5% | MCV (9 h): 64.7 fL | Mono (9 h): 12.8% | Neu (9 h): 14.4% | PT (9 h): 11.9 s | Plat (9 h): 125.6 x10_4/uL | RBC (9 h): 595 x10_4/ul | Ret (9 h): 8.8% | WBC (9 h): 87.8 x10_2/uL | LIVER (9 h): 8.6 g | A/G (9 h): 2.5 | ALP (9 h): 1398.6 IU/L | ALT (9 h): 31.4 IU/L | AST (9 h): 66.2 IU/L | BUN (9 h): 11.4 mg/dL | CRE (9 h): 0.4 mg/dL | Ca (9 h): 11 mg/dL | Cl (9 h): 104.4 meq/L | DBIL (9 h): 0.01 mg/dL | GLC (9 h): 191.4 mg/dL | IP (9 h): 10.7 mg/dL | K (9 h): 4.9 meq/L | LDH (9 h): 145 IU/L | Na (9 h): 138.4 meq/L | PL (9 h): 157.4 mg/dL | RALB (9 h): 3.9 g/dL | TBIL (9 h): 0.046 mg/dL | TC (9 h): 93.2 mg/dL | TG (9 h): 57.6 mg/dL | TP (9 h): 5.5 g/dL | gamma-GTP (9 h): 0.2 IU/L | TERMINAL_BW (24 h): 220.4 g | APTT (24 h): 15.9 s | Bas (24 h): 0% | Eos (24 h): 1.4% | Fbg (24 h): 237.4 mg/dL | Hb (24 h): 12.8 g/dL | Ht (24 h): 38.4% | Lym (24 h): 72.8% | MCH (24 h): 21.6 pg | MCHC (24 h): 33.4% | MCV (24 h): 64.8 fL | Mono (24 h): 10.4% | Neu (24 h): 15.6% | PT (24 h): 11.6 s | Plat (24 h): 131.6 x10_4/uL | RBC (24 h): 593.2 x10_4/ul | Ret (24 h): 7.8% | WBC (24 h): 107.2 x10_2/uL | LIVER (24 h): 11.3 g | A/G (24 h): 2.5 | ALP (24 h): 1262 IU/L | ALT (24 h): 38.8 IU/L | AST (24 h): 64.8 IU/L | BUN (24 h): 14.8 mg/dL | CRE (24 h): 0.4 mg/dL | Ca (24 h): 11.3 mg/dL | Cl (24 h): 103.2 meq/L | DBIL (24 h): 0.012 mg/dL | GLC (24 h): 193.6 mg/dL | IP (24 h): 7.3 mg/dL | K (24 h): 4.6 meq/L | LDH (24 h): 105 IU/L | Na (24 h): 139.4 meq/L | PL (24 h): 159.6 mg/dL | RALB (24 h): 4 g/dL | TBIL (24 h): 0.034 mg/dL | TC (24 h): 90 mg/dL | TG (24 h): 116 mg/dL | TP (24 h): 5.6 g/dL | gamma-GTP (24 h): 0.4 IU/L
